For 35 compounds, IC50 results are on record in US20130059850A1, “AZA-INDOLE DERIVATIVES USEFUL AS MODULATORS OF FAAH” (MERCK SHARP & DOHME CORP., priority 2010, published 2013).

Each structure is given as a SMILES string.

Usually IC50 stands for the midpoint of a concentration-inhibition curve.

In test [1] the target is T1, human FAAH (Fatty Acid Amide Hydrolase) (Homo sapiens, UniProt O00519).
T1 construct: The full length FAAH was subcloned into the mammalian expression vector, pcDEF.neo, using XbaI and EcoRI restriction sites; expressed in transfected cells
T1 sequence (O00519 1-579): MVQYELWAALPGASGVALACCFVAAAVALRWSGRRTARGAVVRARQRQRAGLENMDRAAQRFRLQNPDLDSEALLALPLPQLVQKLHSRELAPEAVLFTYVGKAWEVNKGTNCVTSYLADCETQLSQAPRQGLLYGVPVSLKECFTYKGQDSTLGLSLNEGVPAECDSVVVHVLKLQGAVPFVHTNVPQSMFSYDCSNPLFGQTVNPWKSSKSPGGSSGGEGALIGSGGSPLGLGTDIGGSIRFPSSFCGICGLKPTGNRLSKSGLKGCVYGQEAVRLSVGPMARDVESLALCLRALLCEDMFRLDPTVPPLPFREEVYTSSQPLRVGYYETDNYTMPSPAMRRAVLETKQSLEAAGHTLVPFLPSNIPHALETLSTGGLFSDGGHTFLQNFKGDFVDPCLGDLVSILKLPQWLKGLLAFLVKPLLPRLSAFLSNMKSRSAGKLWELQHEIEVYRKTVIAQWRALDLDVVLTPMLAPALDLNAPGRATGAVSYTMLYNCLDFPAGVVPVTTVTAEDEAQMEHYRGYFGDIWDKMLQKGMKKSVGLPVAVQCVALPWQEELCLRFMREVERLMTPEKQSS
Briefly: FAAH enzyme assay on CHO cell lysate expressing human FAAH (human LY), AAMCA fluorescent substrate. It counts as biochemical. The note with it: human FAAH_CHO cell lysate. A digest of the protocol: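 CHO cell lysate expressing full-length human FAAH, preincubated with compound 15 min at 22-25° C. in pH 8.0 phosphate buffer with 200 mM KCl and 0.1% fatty-acid-free BSA. 1 μM AAMCA final, 1-3 h at room temperature; 7-amino-4-methylcoumarin release read by fluorescence (Ex 360, Em 460 nm).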

For test [2], the target named is T1, human FAAH (Fatty Acid Amide Hydrolase). Briefly: FAAH whole cell assay on CHO cells expressing human FAAH (human WC), AAMCA fluorescent substrate. Type of test: cell-based. The following applies: human FAAH_CHO whole cell. A digest of the protocol:
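CHO cells stably expressing full-length human FAAH, harvested with enzyme-free dissociation and resuspended at 4×10^4 cells/assay (96-well) or 1×10^4 (384-well) in 50 mM phosphate pH 8.0, 1 mM EDTA, 200 mM KCl, 0.2% glycerol, 0.1% BSA.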

As for `Cn1cccc2c(Sc3ccc(Cl)cn3)c(-c3ccc(C(O)C(F)(F)F)cc3)nc1-2` (stereo not shown) [Example E14], the IC50 was 116 nM in test [1] and 925 nM in test [2].
As for `O=C(Nc1ccc2[nH]ncc2c1)c1[nH]c2ncccc2c1Sc1ccc(Cl)cc1` [Example C16], the IC50 in test [1] worked out at 9.79 nM; in test [2] it was 18.1 nM.
As to `COc1ccc(-c2[nH]c3ncccc3c2Sc2ccc(Cl)cc2)c(OC)n1` [Example B18], the IC50 in test [1] was 23.2 nM; in test [2], 124 nM.
For the compound `Cn1cccc2c(Sc3ccc(Cl)cc3)c(-c3ccc4[nH]ncc4c3)nc1-2` [Example E4], the IC50 in test [1] was found to be 4.22 nM; in test [2], 12.4 nM.
In the same order, the values of `O=C(Nc1ccc2c(c1)OCO2)c1[nH]c2ncccc2c1Sc1ccc(Cl)cc1` [Example C15] are 5.9 nM and 9.92 nM.
In the same order, the values of `COCc1ccccc1-c1[nH]c2ncccc2c1Sc1ccc(Cl)cc1` [Example A19] are 196 nM and 1740 nM.
In the same order, the values of `Clc1ccc(Sc2c(-c3ccnc4[nH]ccc34)[nH]c3ncccc23)cc1` [Example B27] are 3.18 nM and 30 nM.
Turning to `COc1ncc(-c2[nH]c3ncccc3c2Sc2ccc(Cl)cc2)c(OC)n1` [Example B14], the IC50 in test [1] came to 9.47 nM; in test [2], 47.4 nM.
Taken in the same sequence, the figures for `NS(=O)(=O)c1ccc(-c2[nH]c3ncccc3c2Sc2ccc(Cl)cn2)cc1` [Example A8, 4-{3-[(5-chloropyridin-2-yl)sulfanyl]-1H-pyrrolo[2,3-b]pyridin-2-yl}benzenesulfonamide] were 6 nM and 21.8 nM.
Turning to `Cn1cc(-c2[nH]c3ncccc3c2Sc2ccc(Cl)cc2)cn1` [Example B20], the IC50 was determined as 238 nM in test [1] and 4160 nM in test [2].
Regarding `OCC1CC=C(c2[nH]c3ncccc3c2Sc2ccc(Cl)cc2)CC1` (stereo not shown) [Example B50, (4-{3-[(4-chlorophenyl)sulfanyl]-1H-pyrrolo[2,3-b]pyridin-2-yl}cyclohex-3-en-1-yl)methanol], the IC50 in test [1] came out at 3.06 nM; in test [2], 8.04 nM.
Taken in the same sequence, the figures for `O=C1CCC(c2[nH]c3ncccc3c2Sc2ccc(Cl)cc2)CC1` [Example D7, 4-{3-[(4-chlorophenyl)sulfanyl]-1H-pyrrolo[2,3-b]pyridin-2-yl}cyclohexanone] were 14.2 nM and 22.8 nM.
In the same order, the values of `COc1cccc(-c2[nH]c3ncccc3c2Sc2ccc(Cl)cc2)c1` [Example B7] are 2.23 nM and 18.8 nM.
Taken in the same sequence, the figures for `O=S(=O)(c1ccc(-c2[nH]c3ncccc3c2Sc2ccc(Cl)cn2)cc1)N1CCOCC1` [Example A21] were 230 nM and 370 nM.
As to `Clc1ccc(Sc2c(-c3cccs3)[nH]c3ncccc23)cc1` [Example B33], the IC50 stood at 464 nM in test [1] and 8540 nM in test [2].
On to `COc1ccc(-c2[nH]c3ncccc3c2Sc2ccc(Cl)cc2)cn1` [Example B43], for which the concentration for half-maximal inhibition (IC50) in test [1] worked out at 3.42 nM; in test [2] it was 18.9 nM.
Turning to `Clc1ccc(Sc2c(C3=CCCOC3)[nH]c3ncccc23)cc1` [Example B17], the half-inhibitory concentration (IC50) in test [1] came out at 31.9 nM; in test [2], 190 nM.
In the case of `Clc1ccc(Sc2c(-c3ccc4c(c3)OCCO4)[nH]c3ncccc23)nc1` [Example B13], the IC50 in test [1] worked out at 2.89 nM; in test [2], 13 nM.
As to `CC(O)c1ccc(-c2[nH]c3ncccc3c2Sc2ccc(Cl)cc2)cc1` (stereo not shown) [Example B12], the figures for the IC50 in test [1] and in test [2] were 11.6 nM and 27.1 nM, respectively.
Consider `Clc1ccc(Sc2c(CNC3CCOCC3)[nH]c3ncccc23)cc1` [Example J7], for which the IC50 in test [1] came out at 260 nM; in test [2] it was 1140 nM.
In the same order, the values of `NC(=O)CCn1cccc2c(Sc3ccc(Cl)cc3)c(-c3ccc4c(c3)OCO4)nc1-2` [Example E21] are 317 nM and 1390 nM.
For the compound `O[C@H]1CC[C@H](c2[nH]c3ncccc3c2Sc2ccc(Cl)cc2)CC1` [Example D5, trans-4-{3-[(4-chlorophenyl)sulfanyl]-1H-pyrrolo[2,3-b]pyridin-2-yl}cyclohexanol], the IC50 in test [1] was 3.83 nM; in test [2], 9.16 nM.
Taken in the same sequence, the figures for `Clc1ccc(Sc2c(-c3ccc(C4CC4)nc3)[nH]c3ncccc23)cc1` [Example B37] were 6.42 nM and 21.7 nM.
Regarding `Cn1cccc2c(Sc3ccc(Cl)cn3)c([C@H]3CC[C@@H](O)CC3)nc1-2` [Example E23], the results for the IC50 in test [1] and in test [2] were 148 nM and 252 nM, respectively.
In the same order, the values of `OCCn1c(-c2ccc3c(c2)OCO3)c(Sc2ccc(Cl)cc2)c2cccnc21` [Example E35] are 31.7 nM and 115 nM.
Consider `CC(=O)Nc1ccc(-c2[nH]c3ncccc3c2Sc2ccc(Cl)cc2)cc1` [Example A20], for which the results for the IC50 in test [1] and in test [2] were 110 nM and 370 nM, respectively.
Consider `Cn1cccc2c(Sc3ccc(Cl)cc3)c(C(=O)Nc3ccc4c(c3)OCCO4)nc1-2` [Example E18], for which the IC50 in test [1] came to 171 nM; in test [2], 1340 nM.
For `Cn1cccc2c(Sc3ccc(Cl)cn3)c([C@H]3CC[C@H](O)CC3)nc1-2` [Example E16], the IC50 in test [1] amounted to 2030 nM; in test [2] it was 8490 nM.
Take `OC[C@H]1CC[C@@H](c2[nH]c3ncccc3c2Sc2ccc(Cl)cc2)CC1` [Example B51]: the IC50 in test [1] was determined as 14.6 nM; in test [2], 73.9 nM.
`Cn1cccc2c(Sc3ccc(Cl)cc3)c(C3=CCC(O)CC3)nc1-2` (stereo not shown) [Example E5]: the IC50 was found to be 8.07 nM in test [1] and 53.9 nM in test [2].
`OC1CC=C(c2[nH]c3ncccc3c2Sc2ccc(Cl)cc2)CC1` (stereo not shown) [Example B36]: the 50% inhibitory concentration (IC50) in test [1] is 1.79 nM; in test [2], 9.53 nM.
Taken in the same sequence, the figures for `N#Cc1ccccc1-c1[nH]c2ncccc2c1Sc1ccc(Cl)cc1` [Example F8] were 12.2 nM and 69.4 nM.
In the same order, the values of `Clc1ccc(Sc2c(-c3ccsc3)[nH]c3ncccc23)cc1` [Example B28] are 217 nM and 1520 nM.
In the same order, the values of `Oc1ccc(-c2[nH]c3ncccc3c2Sc2ccc(Cl)cc2)cc1` [Example A23] are 1.65 nM and 16.4 nM.
With `Clc1ccc(Sc2c(C3=CCCC3)[nH]c3ncccc23)cc1` [Example B15], the half-maximal inhibitory concentration (IC50) in test [1] stood at 107 nM; in test [2] it was 1110 nM.
